Data: patent US20240190866A1, “POLYHYDROXYLATED INDOLIZIDINE AND PYRROLIZIDINE DERIVATIVES AND USES THEREOF” (Academia Sinica, priority 2021, published 2024)

Assays:
[1] = target: human Golgi α-mannosidase II (α-hGMII) (Homo sapiens (Human), UniProt Q16706); experiment: Golgi α-mannosidase II (α-hGMII) activity assay, 4-MU-α-D-mannopyranoside substrate; assay type: biochemical; details: pH 7.0, 37° C., 2 h
Method: Compounds were diluted to give the final concentration of 100 μM and mixed with 4-MU-α-D-mannopyranoside as substrate and human Golgi α-mannosidase II in phosphate buffer (0.1 M Sodium phosphate dibasic, pH 7.0) or human lysosomal α-mannosidase in citric phosphate buffer (0.1 M Sodium phosphate monobasic monohydrate, 0.5 mM citric acid monohydrate, pH 4.6). The assay was carried out at 37° C. for a certain time (1 h for α-hLM, 2 h for α-hGMII). Stop solution (0.5 M K2CO3(aq), pH 10.8) was then added to the reactions and the fluorescence was determined at 355 nm excitation and 460 nm emission (SpectraMax M5, Molecular Devices). Inhibition was performed as relative enzyme activity to control. The active compounds were selected for libraries preparation and further tested at lower concentration to determine their IC50 values. The assays performed in 384-wells of the microtiter plates.

[2] = tested on: all cancer cell lines (HepG2, Huh7, PANC-1, H1975, MDA-MB-231); experiment: Anti-proliferative activity, pooled statement over all cancer cell lines; assay type: cell-based, human; details: read-out: half maximum inhibitory concentration (IC50), range in all cancer cell lines
Method: (§1) Anti-proliferative activity of HepG2, Huh7 or PANC-1 cells was determined by 3-(4,5-dimethylthiazol-2-yl)-2,5-diphenyltetrazolium bromide (MTT) assay, while that of H1975 or MDA-MB-231 cells was determined by luminescent assay with the aid of commercial kit CellTiter-Glo® (Promega).
(§2) Cancer cells including HepG2, Huh7 and PANC-1 cells were respectively seeded at 10^4, 4×10^3, and 5×10^3 cells/well in 96-well plates and maintained for 14-16 hours. Cells were treated with dimethylsulfoxide (DMSO) or test compounds in varied concentrations for 72 h. Cells were then washed with PBS twice, added a medium containing 3-(4,5-dimethylthiazol-2-yl)-2,5-diphenyltetrazolium bromide (MTT) at a final concentration of 0.5 mg/mL, and incubated for 4 h at 37° C. in a humidified incubator containing 5% CO2 in air. Cells having functional succinate dehydrogenase of mithchondria would convert MTT to formazan. Then, the medium was replaced with 100 μL of DMSO for 30 min at room temperature, and the 96-well plate was read by an ELISA reader at 550 nm to get the absorbance density values. The IC50 values of death cell lines were calculated accordingly.
For H1975 and MDA-MB-231, cells were respectively seeded at 5×10^3 cells/well in 96-well plates and maintained for 14-16 hours. Cells were treated with dimethylsulfoxide (DMSO) or test compounds in varied concentrations for 48 h. Cell viability was monitored using Cell-TiterGlo (Promega), a kit that measures the quantity of ATP present in the cell culture, an indicator of metabolically active cells. The IC50 values of death cell lines were calculated accordingly.

HepG2 cells [3] = experiment: N-glycan profiling by mass spectrometric analysis; assay type: cell-based, human; details: HepG2, 0.1 to 10 μM, 72 h
Method: (§3) To this purpose, HepG2 and Huh7 cells were treated with ACK900 in dose-dependent manner (0.1 to 10 μM) for 72 h and N-glycan profiling was determined using mass spectrometric analysis. (FIGS. 1B and 1C)), This method was based on matching the experimental masses with the predicted masses of the glycans from the CFG carbohydrate database. The individual glycoforms were quantified and calculated for their proportions in all the glycoforms. Most N-glycans of untreated HepG2 and Huh7 were dominated by complex-type glycans containing sialic acids and fucoses. High-mannose or hybrid-type glycans were found in a relatively low percentage. […] These glycoform data from MS analysis were consistent with the surface binding of lectin using fluorescence microscopy.

Huh7 cells [4] = experiment: N-glycan profiling by mass spectrometric analysis; assay type: cell-based, human; details: Huh7, 0.1 to 10 μM, 72 h
Method: as §3

HepG2 cells [5] = experiment: Anti-proliferative activity assay (MTT); assay type: cell-based, human; details: 72 h
Method: (§4) Human liver cancer HepG2 cells and Huh7 cells, breast cancer MDA-MB-231 cells, pancreatic cancer PANC-1 cells, and non-small cell lung (NSCL) cancer H1975 cells were maintained in Dulbecco's Modified Eagle Medium supplemented containing 10% fetal bovine serum (FBS), 100 units/ml penicillin and […] streptomycin in 37° C. incubator with 5% CO2.
as §1, §2

PANC-1 cells = experiment: Anti-proliferative activity assay (MTT); assay type: cell-based, human; details: 72 h
Method: as §4, §1, §2

Huh7 cells [6] = experiment: Anti-proliferative activity assay (MTT); assay type: cell-based, human; details: 72 h
Method: as §4, §1, §2

Chain of human Golgi α-mannosidase II (α-hGMII) (Q16706 whole entry): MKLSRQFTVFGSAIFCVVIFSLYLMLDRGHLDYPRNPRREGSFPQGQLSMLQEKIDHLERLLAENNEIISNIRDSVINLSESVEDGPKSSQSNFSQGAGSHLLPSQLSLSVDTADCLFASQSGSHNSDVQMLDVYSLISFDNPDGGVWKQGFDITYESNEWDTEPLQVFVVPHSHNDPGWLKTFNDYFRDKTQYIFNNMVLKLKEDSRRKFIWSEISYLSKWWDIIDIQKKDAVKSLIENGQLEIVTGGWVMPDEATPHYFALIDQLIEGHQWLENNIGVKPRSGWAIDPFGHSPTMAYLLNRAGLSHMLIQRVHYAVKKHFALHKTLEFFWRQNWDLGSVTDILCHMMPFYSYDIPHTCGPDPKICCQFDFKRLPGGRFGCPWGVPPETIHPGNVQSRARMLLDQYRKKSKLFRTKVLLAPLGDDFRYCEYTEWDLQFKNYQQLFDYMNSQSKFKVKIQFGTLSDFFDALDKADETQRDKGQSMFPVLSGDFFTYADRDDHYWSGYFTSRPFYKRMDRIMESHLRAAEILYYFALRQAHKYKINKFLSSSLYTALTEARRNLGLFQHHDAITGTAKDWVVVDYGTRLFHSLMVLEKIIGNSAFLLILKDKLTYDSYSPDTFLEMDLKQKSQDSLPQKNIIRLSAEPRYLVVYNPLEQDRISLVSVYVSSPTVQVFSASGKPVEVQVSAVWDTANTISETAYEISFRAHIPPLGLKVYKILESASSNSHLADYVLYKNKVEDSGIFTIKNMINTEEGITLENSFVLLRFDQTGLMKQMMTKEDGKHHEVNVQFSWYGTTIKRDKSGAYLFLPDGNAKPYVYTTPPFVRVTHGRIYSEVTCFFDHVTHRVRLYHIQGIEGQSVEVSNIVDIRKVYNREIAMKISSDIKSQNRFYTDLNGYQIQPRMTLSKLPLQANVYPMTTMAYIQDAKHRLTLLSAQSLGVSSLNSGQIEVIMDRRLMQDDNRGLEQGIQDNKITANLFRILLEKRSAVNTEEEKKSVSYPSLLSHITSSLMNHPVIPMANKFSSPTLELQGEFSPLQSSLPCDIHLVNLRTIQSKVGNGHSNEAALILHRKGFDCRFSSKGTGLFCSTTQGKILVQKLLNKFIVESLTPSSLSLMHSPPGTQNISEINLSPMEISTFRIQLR

Structure (SMILES): CCC[C@H]1CC[C@H](c2ccc(NC(=S)NC[C@@H]3[C@@H](O)[C@@H](O)[C@H]4[C@H](O)CCCN43)cc2)CC1 [ACK900]
- IC50 [1]: 0.1 µM
- IC50 [2]: 0.3 to 19.1 µM
- N-glycan pattern (HepG2 cells [3]): significant shift of N-glycopatterns from complex chains to the hybrid-type glycan
- N-glycan pattern (Huh7 cells [4]): significant shift of N-glycopatterns from complex chains to the hybrid-type glycan
- IC50 (HepG2 cells [5]): 5.9 µM
- IC50 (PANC-1 cells): 14.5 µM
- IC50 (Huh7 cells [6]): 7.8 µM
